According to patent US20100197495A1, “Synergistic Mixtures and/or Compositions With a High Fungicidal Activity” (priority 2005, published 2010):

Test system: Plasmopara viticola
Test: 7-day preventive activity on Plasmopara viticola on vines, preventive leaf application (greenhouse test)
Assay type: in vivo
Parameters: key to Activity (y): scale 100 = healthy plant to 0 = completely infected plant
Experimental: Efficacy of the mixtures of one or more compounds belonging to the FOS and SIN groups of compounds in the control of Plasmopara viticola on vines in preventive leaf application (greenhouse test) (Table 1-Table 3) and of the compositions of said mixtures with a further fungicidal component (Table 4).
Leaves of cultivar Merlot vines, grown in vases, in a conditioned environment (20±1° C., 70% relative humidity) are treated by spraying both sides of the leaves with the mixtures under examination dispersed in an aqueous solution containing a 0.3% of tween 20.
After remaining 7 days in a conditioned environment, the plants are infected on the lower side with an aqueous suspension of spores of Plasmopara viticola (200,000 spores per cm^3).
The plants are kept in a humidity saturated environment, at 21° C., for the incubation period of the fungus and, at the end of this period (7 days), the fungicidal activity is evaluated according to an evaluation percentage scale from 100 (healthy plant) to 0 (completely infected plant).
When the fungicidal activity found experimentally is greater than the value of E, this activity is considered a synergistic effect.

[1] = Table 4, alone, 32 ppm of equivalent metal copper
[2] = Table 4, alone, 125 ppm of equivalent phosphorous acid
[3] = compound alone, 250 ppm of equivalent phosphorous acid, scale 100 (healthy plant) to 0 (completely infected plant)

CC(=O)Oc1ccccc1C(=O)[O-].CC(=O)Oc1ccccc1C(=O)[O-].[Cu+2] [Cu(ASA)2]
% activity of each single compound [1]: Cu(ASA)2: 32 ppm*** (45) %

[Cu+2].c1ccc2c(c1)-c1nc-2nc2[n-]c(nc3nc(nc4[n-]c(n1)c1ccccc41)-c1ccccc1-3)c1ccccc21 [Cu(II) phthalocyanine, copper phthalocyanine]
Activity (y) (SIN compound alone, 32 ppm of equivalent metal): 10 | % activity of each single compound [1]: (8) %

O=C(O)c1ccccc1[O-].O=C(O)c1ccccc1[O-].[Cu+2] [Cu(SA)]
% activity of each single compound [1]: Cu(SA): 32 ppm*** (42) %

O=[PH]([O-])[O-].[Cu+2] [CuHPO3, copper (II) salt of phosphorous acid]
% activity of each single compound (Table 3, alone, 250 ppm of equivalent phosphorous acid): CuHPO3: 250 ppm** (55) % | % activity of each single compound [2]: CuHPO3: 125 ppm** (32) % | Activity (y) [3]: 55

O=c1ccc2cc(O[C@@H]3O[C@H](CO)[C@@H](O)[C@H](O)[C@H]3O)c(O)cc2o1 [Esculin, esculin]
Activity (y) (SIN compound alone, 25 ppm): 10

COC(=O)CC(NC(=O)[C@@H](NC(=O)OC(C)C)C(C)C)c1ccc(Cl)cc1 (stereo partly drawn) [IR5885, methyl [S—(R,S)]-[3-(N-isopropoxycarbonylvalinyl)-amino]-3-(4-chlorophenyl)propanoate]
% activity of each single compound (Table 4, alone, 0.45 ppm): IR5885: 0.45 ppm (41) %

COC(=O)[C@@H](C)N(C(=O)Cc1ccccc1)c1c(C)cccc1C [IR6141, methyl N-(phenylacetyl)-N-2,6-xylyl-R-alaninate]
inhibition at 5 ppm (Plasmopara viticola, Table 4, alone, 5 ppm, read-out: % activity of each single compound): 45%

[C-]#N.[C-]#N.[C-]#N.[C-]#N.[C-]#N.[C-]#N.[C-]#N.[C-]#N.[C-]#N.[C-]#N.[C-]#N.[C-]#N.[C-]#N.[C-]#N.[C-]#N.[C-]#N.[C-]#N.[C-]#N.[Fe+2].[Fe+2].[Fe+2].[Fe+3].[Fe+3].[Fe+3].[Fe+3] [Prussian blue]
Activity (y) (SIN compound alone, 250 ppm): 32 | % activity of each single compound (Table 3, alone, 125 ppm): Prussian blue: 125 ppm (5) % | % activity of each single compound (Table 4, alone, 125 ppm): Prussian blue: 125 ppm (5) %

O=[PH]([O-])[O-].[Zn+2] [ZnHPO3, zinc salt of phosphorous acid]
% activity of each single compound [2]: ZnHPO3: 125 ppm** (18) % | Activity (y) [3]: 35

[O]=[Zn] [ZnO, zinc oxide]
Activity (y) (SIN compound alone, 250 ppm): 30 | % activity of each single compound (Table 3, alone, 125 ppm): ZnO: 125 ppm (14) % | % activity of each single compound (Table 4, alone, 125 ppm): ZnO: 125 ppm (14) %

silicic acid
Activity (y) (SIN compound alone, 14 ppm of equivalent metal): 14

titanium dioxide [TiO2]
Activity (y) (SIN compound alone, 250 ppm): 13 | % activity of each single compound (Table 3, alone, 125 ppm): TiO2: 125 ppm (3) % | % activity of each single compound (Table 4, alone, 125 ppm): TiO2: 125 ppm (3) %
